Values quoted from earlier work, collected in patent publication US9555029B2 (HIKMA PHARMACEUTICALS, priority 2013, dated 2017).

Legend:
P-gp = P-gp (Homo sapiens, UniProt P08183); conditions: FDA definition; cited from earlier work
CYP3A4 = CYP3A4 (Homo sapiens, UniProt P08684); conditions: FDA definition of relative strength; cited from earlier work
Chain of CYP3A4 (P08684 whole entry): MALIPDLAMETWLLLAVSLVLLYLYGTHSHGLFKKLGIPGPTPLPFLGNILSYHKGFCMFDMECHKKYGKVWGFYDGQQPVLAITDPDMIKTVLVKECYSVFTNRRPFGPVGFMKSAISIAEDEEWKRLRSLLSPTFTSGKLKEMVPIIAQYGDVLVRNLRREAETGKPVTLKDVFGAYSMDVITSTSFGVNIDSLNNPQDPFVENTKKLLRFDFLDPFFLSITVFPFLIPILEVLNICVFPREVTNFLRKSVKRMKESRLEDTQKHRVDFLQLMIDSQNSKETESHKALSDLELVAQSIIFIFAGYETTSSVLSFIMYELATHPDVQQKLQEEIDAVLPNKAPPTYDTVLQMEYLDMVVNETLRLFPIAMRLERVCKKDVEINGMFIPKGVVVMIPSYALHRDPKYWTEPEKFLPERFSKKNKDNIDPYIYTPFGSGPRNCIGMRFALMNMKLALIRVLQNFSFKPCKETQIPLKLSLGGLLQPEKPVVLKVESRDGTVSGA

Chain of P-gp (P08183 whole entry): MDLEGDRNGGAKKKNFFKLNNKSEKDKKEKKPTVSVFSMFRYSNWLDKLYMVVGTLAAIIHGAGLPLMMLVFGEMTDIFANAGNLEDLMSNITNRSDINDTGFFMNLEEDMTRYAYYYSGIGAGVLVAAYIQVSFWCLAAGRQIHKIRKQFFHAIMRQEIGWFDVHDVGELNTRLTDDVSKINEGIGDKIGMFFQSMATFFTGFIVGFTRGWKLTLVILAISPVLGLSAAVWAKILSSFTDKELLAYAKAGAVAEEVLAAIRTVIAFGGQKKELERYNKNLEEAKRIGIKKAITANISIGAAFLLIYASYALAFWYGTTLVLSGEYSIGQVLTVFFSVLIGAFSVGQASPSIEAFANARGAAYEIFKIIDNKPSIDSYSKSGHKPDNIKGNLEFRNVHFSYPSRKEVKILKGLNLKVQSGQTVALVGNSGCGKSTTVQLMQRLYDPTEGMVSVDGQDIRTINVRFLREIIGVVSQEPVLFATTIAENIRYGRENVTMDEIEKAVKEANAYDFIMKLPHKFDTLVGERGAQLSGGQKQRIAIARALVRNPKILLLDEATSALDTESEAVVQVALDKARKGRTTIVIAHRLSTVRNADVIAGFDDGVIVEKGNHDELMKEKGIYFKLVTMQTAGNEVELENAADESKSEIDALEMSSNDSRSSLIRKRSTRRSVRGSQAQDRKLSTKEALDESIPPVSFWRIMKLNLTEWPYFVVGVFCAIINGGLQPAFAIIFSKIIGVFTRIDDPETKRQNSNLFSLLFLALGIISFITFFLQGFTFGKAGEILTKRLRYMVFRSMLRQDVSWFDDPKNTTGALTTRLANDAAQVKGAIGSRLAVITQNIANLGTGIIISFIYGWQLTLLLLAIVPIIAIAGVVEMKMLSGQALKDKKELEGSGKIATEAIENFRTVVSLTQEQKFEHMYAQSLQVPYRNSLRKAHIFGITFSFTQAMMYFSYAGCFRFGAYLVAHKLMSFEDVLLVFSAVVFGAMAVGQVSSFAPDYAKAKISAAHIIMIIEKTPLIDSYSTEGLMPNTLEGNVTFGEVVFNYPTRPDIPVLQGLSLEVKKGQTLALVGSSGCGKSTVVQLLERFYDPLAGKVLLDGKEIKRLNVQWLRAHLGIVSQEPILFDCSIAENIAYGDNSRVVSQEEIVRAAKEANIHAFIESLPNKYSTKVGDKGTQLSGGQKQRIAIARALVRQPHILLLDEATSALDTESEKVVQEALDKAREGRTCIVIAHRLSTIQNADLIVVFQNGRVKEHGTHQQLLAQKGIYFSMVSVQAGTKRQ

| Structure (SMILES) | Inhibitor of P-gp (P-gp) | Strength as inhibitor of CYP3A4 (CYP3A4) |
| --- | --- | --- |
| CN/C(=N/CCSCc1nc[nH]c1C)NC#N [Cimetidine, 2-cyano-1-methyl-3-(2-[(5-methyl-1H-imidazol-4-yl)methylthio]ethyl)guanidine] | not an inhibitor |  |
| OC(Cn1cncn1)(Cn1cncn1)c1ccc(F)cc1F [Fluconazole, 2-(2,4-difluorophenyl)-1,3-bis(1H-1,2,4-triazol-1-yl)propan-2-ol] | not an inhibitor | moderate (“Moderate inhibitors” cause ≧2-fold but <5-fold (i.e., 100-399%) increase in AUC) |
| C[C@@H](c1ncncc1F)[C@](O)(Cn1cncn1)c1ccc(F)cc1F [Voriconazole, (2R,3S)-2-(2,4-difluorophenyl)-3-(5-fluoropyrimidin-4-yl)-1-(1H-1,2,4-triazol-1-yl)butan-2-ol] | not an inhibitor |  |
